Where no end group is shown, it is not given here.
Target: HLA-DQ8 (Homo sapiens, UniProt P01909+P01920, A209T/A45G/C70Q/D89A/DUP78-78/E183D/E77G/F237L/G63E/H199R/I129T/K197E/L178F/L74F/L98V/Q57E/Q76R/S185I/S97I/T217I/T49S/V73L/Y58L)
Test: biochemical
Type: binding

Sequence of HLA-DQ8 (P01920 33-261 A45G/Y58L/E77G/D89A/H199R/T217I limits assumed, other chains not shown): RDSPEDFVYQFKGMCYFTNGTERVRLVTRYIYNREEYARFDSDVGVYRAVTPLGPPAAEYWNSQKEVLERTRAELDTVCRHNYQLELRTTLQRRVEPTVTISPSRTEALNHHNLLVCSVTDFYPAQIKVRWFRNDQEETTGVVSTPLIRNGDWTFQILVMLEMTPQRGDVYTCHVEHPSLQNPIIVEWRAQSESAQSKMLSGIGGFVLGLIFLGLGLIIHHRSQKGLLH

ADVEVYRAVTPLGPPD [DQB45–57]
IC50: 0.1 µM
